Results on 6 molecules are retold here after patent US10105349B2, “Organic compounds” (INTRA-CELLULAR THERAPIES, INC., priority 2014, dated 2018).

The conditions of data set [1]: published standard, 10 mg/kg PO; cited from earlier work.
The target in data set [2] is r-hPDE2A (Homo sapiens (Human), UniProt O00408). The experiment in a line: Measurement of PDE2 inhibition in vitro (IMAP fluorescence polarization). Particulars: FL-cAMP substrate, buffer supplemented with 1 μM cGMP. The data set is classed as biochemical. As to the method: Measurement of PDE2 Inhibition In Vitro
Chain of r-hPDE2A (O00408 whole entry): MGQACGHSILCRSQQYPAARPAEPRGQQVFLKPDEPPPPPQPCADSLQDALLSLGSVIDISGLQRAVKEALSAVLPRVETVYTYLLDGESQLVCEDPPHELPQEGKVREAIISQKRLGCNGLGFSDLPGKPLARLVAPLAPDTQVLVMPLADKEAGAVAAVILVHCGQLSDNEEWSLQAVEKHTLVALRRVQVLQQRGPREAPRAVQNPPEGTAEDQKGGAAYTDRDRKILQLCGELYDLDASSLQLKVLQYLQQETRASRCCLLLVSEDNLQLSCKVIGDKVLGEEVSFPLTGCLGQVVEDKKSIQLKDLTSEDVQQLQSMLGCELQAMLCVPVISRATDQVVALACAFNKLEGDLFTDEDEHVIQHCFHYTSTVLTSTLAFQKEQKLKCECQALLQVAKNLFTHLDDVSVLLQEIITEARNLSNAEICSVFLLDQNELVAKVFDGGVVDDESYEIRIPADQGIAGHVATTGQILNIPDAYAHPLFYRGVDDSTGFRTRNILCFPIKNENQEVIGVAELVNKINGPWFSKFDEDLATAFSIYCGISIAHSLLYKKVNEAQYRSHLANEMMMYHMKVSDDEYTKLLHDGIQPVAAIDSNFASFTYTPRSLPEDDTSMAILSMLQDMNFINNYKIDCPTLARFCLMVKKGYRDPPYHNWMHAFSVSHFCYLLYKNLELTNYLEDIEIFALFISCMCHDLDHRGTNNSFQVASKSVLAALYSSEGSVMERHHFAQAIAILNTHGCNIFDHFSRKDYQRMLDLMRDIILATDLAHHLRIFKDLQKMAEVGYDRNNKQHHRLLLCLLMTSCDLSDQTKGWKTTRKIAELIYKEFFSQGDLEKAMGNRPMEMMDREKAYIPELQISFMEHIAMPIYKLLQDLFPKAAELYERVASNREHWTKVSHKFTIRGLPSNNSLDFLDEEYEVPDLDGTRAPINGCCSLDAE
r-hPDE2A (Accession No. NM_002599, Homo sapiens phosphodiesterase 2A, cGMP-stimulated, transcript variant 1) A mammalian expression cloning vector with recombinant cDNA copy of the gene is purchased from Origene. Protein is expressed via transient transfection of HEK293 cells. The cells are harvested at 48 hours after transfection, washed once with TBS buffer (50 mM Tris-HCl, pH 7.5, 150 mM NaCl), then lysed by sonication in cold homogenization buffer (50 mM Tris-HCl, pH 7.5, 5 mM MgCl2, 1× protease inhibitor cocktail). The homogenate is centrifuged for 30 min at 15,000 g at 4° C. to obtain the soluble cytosolic fraction. The protein concentration of the cytosol is determined using BCA Protein Assay Kit (Pierce) with bovine serum albumin as a standard.
Assay: PDE2A is assayed with FL-cAMP as substrate. An enzyme titration is first performed to determine the working concentration of PDE. The concentration of the enzyme giving activity of 100 ΔmP in the absence of inhibitor is deemed an appropriate working concentration for PDE.
PDE enzyme is diluted in a standard reaction buffer (10 mM Tris-HCl pH 7.2, 10 mM MgCl2, 0.1% BSA, 0.05% NaN3) according to the titration curve. For PDE2 assay the reaction buffer is supplemented with 1 μM cGMP to fully activate the enzyme. 99 μl of diluted enzyme solution is added into each well in a flat bottom 96-well polystyrene plate and then ˜1 μl of test compound dissolved in 100% DMSO is added. The compounds are mixed and pre-incubated with the enzyme for 10 min at room temperature.
The FL-cNMP conversion reaction is initiated by addition of substrate (45 nM final). Enzyme and inhibitor mix (16 μl) and substrate solution (4 μl of 0.225 μM) are combined in a 384-well microtiter plate. The reaction is incubated in the dark at room temperature for 15 min. The reaction is halted by addition of 60 μl of binding reagent (1:400 dilution of IMAP beads in binding buffer supplemented with 1:1800 dilution of antifoam) to each well of the 384-well plate. The plate is incubated at room temperature for 1 hour to allow IMAP binding to proceed to completion, and then placed in an Envision multimode microplate reader (PerkinElmer, Shelton, Conn.) to measure the fluorescence polarization (Δmp).
A decrease in cAMP concentration, measured as decreased Amp, is indicative of inhibition of PDE activity. […] Test well values are normalized to control reactions run on the same plate (values converted to % of control). IC50 values are estimated using nonlinear regression software, fitting a four-parameter one-site dose-response model (XLFit; IDBS, Cambridge, Mass.). Bottom of curve is fixed at 0% of control.
The total fluorescence intensity of each sample well is measured to calculate the average and standard deviation. If the total fluorescence intensity of any sample well is not within the range of Average±3SD, the mp value of that particular well is discarded.

A short description of data set [3]: Pharmacokinetic study in mice (plasma and brain availability). Format: in vivo. Particulars: 10 mg/kg PO; for blood plasma ratio: brain/plasma, po, 10 mg/kg. As to the method:
Pharmacokinetic Study in Mice
Mice are given a single oral dose of the compound of Example 22 (10 mg/kg, PO) and plasma and brain availability are measured (0.25-4 h) using HPLC and LC-MS using methods analogous to those described in Zhao et al., J. Chromatogr. B. Analyt. Technol. Biomed. Life Sci. (2005) 819(1):73-80 and Appels, N. M., et al., Rapid Commun. Mass Spec. 2005. 19(15): p. 2187-92.

In data set [4] the test system is cGMP levels in the striatum. The experiment in a line: Measurements of cGMP in mouse brain in vivo. The method, then:
Measurements of cGMP in Mouse Brain in vivo:
Striatum are dissected from the mouse brains and assayed for levels of cGMP. Trichloroacetic acid (TCA) is added to tissue samples for a final concentration of 5% TCA and the tissue is immediately sonicated in solution and stored on ice. The sonicated sample is centrifuged at 15,000×g for 20 min at 4° C. to remove the precipitated protein. To extract the TCA, the sample is washed three times in water saturated ether. The samples are then dried under vacuum (Speedvac, Savant SPD111V) at room temperature and re-suspended in 100 μL EIA buffer. […] Each sample is tested in duplicate in precoated assay plates alongside the 8-point cGMP standard dilutions. In addition, blank, maximum binding (B0) and non-specific binding wells are included. To all wells containing 50 μL sample or standard, equal volumes of AChE-linked cGMP and cGMP antibody are added. The plate is incubated at 4° C. for 18 hours. The wells are then washed 5 times with wash buffer. […] Each data point is converted to % B/B0 (100*[(sample or standard OD−average non-specific binding)/(average B0−average non-specific binding)]). The standards are plotted and fit to a 4-parameter logistic equation (FIG. 1). The concentrations of the samples are interpolated from the standard curve using Microsoft Excel and GraphPad Prizm.

Where two headings read alike, the source gives them in different places.

`COc1ccc(Cc2nn3c([C@@H](CCCc4ccccc4)[C@@H](C)O)nc(C)c3c(=O)[nH]2)cc1OC` [Bay 60-7550]: in data set [1], the Cmax is 3 ng/mL and the time to peak (Tmax) is 0.25 h.

In turn, `CCCCOc1ccc(Cl)c(-n2nc(C)c3c(=O)[nH]c4cccnc4c32)c1` [Example 17, 1-(5-Butoxy-2-chlorophenyl)-3-methyl-1H-pyrazolo[4,3-c][1,5]naphthyridin-4(5H)-one] gave an IC50 in data set [2] of 28 nM.

In turn, `Cc1nn(-c2cc(Cl)ccc2Cl)c2c1c(=O)[nH]c1ccc(Cl)nc12` [Example 19, 8-Chloro-1-(2,5-dichlorophenyl)-3-methyl-1H-pyrazolo[4,3-c][1,5]naphthyridin-4(5H)-one] gave a half-maximal inhibitory concentration (IC50) in data set [2] of 73 nM.

Take `CCCCOc1ccc(Cl)c(-n2nc(C)c3c(=O)[nH]c4ccc(Cl)nc4c32)c1` [Example 20, 1-(5-Butoxy-2-chlorophenyl)-8-chloro-3-methyl-1H-pyrazolo[4,3-c][1,5]naphthyridin-4(5H)-one]: in data set [2], the midpoint of inhibition, the IC50, lay at 12 nM. This IC50 lies about 6.1-fold lower than the previous one.

The molecule `CCCCOc1ccc(Cl)c(-n2nc(C)c3c(=O)[nH]c4ccc(OC)nc4c32)c1` [Example 21, 1-(5-Butoxy-2-chlorophenyl)-8-methoxy-3-methyl-1H-pyrazolo[4,3-c][1,5]naphthyridin-4(5H)-one] gave a half-maximal inhibitory concentration (IC50) in data set [2] of 9.4 nM.

`COc1ccc2[nH]c(=O)c3c(C)nn(-c4cc(OCC5CCC5)ccc4Cl)c3c2n1` [Example 22, 1-(2-Chloro-5-(cyclobutylmethoxy)phenyl)-8-methoxy-3-methyl-1H-pyrazolo[4,3-c][1,5]naphthyridin-4(5H)-one]: in data set [2], the half-maximal inhibitory concentration (IC50) is 5.9 nM. Further, in data set [3] (0.25-4 h, compared to Bay 60-7550), the brain access result is given as “good brain access”. Besides, in data set [3] (mouse, brain), the exposure (AUC) was determined as 83 ng·h/mL, the AUC(0-t) worked out at 50 ng·h/mL, the Cmax was 17 ng/mL and the Tmax amounted to 2 h. Besides, the half-life in data set [3] (mouse, brain, read-out: E Half-life (converted)) is 2.4 h. For the same molecule, the blood plasma ratio in data set [3] (mouse, read-out: Blood/plasma Ratio of AUC (area)) is 0.9. For the same molecule, the blood plasma ratio in data set [3] (mouse, read-out: Blood/plasma Ratio of Cmax (obs)) is 1.4. Further, the blood plasma ratio in data set [3] (mouse, Blood/plasma Ratio of AUC (0-4 hr) (obs area)) was 1.4. Moreover, the “cGMP levels in the striatum of mice” value in data set [4] (3 mg/kg i.p., 15, 30 or 60 min, compared to Bay 60-7550 (3 mg/kg)) was “increases cGMP levels”. The “brain access compared to Bay60-7550” value in data set [4] (inferred from striatal cGMP after 3 mg/kg i.p.) is on record as “improvement in brain access”.
